The values below come from patent US20230050846A1, “TREATMENT OF HEPATIC AND CARDIOVASCULAR DISORDERS” (LIFESEARCH, priority 2019, published 2023).

In one assay the test system is HepG2 cells. The assay is described as follows: HDL endocytosis assay in hepatocytes. Format: cell-based, human. Particulars: for effect on HDL endocytosis: 1 μM, HDL-Alexa568 50 μg/mL, 25 min, abolished by IF1 1 μM. The method, then:
HepG2 cells were seeded on 96-well plates at 50,000 cells/well. HDL3 (d 1.12-1.21) were isolated from plasma of healthy human donors and referred to as HDL. HDL was fluorescently labeled with AlexaFluor®568 dye (A10238, Thermofisher Scientific) according the instructions of manufacturer. 1 h30 before the assay, the cells were serum starved for 1 h30 in order to stabilize nucleotide secretion. Cells were incubated with inhibitors (H49K, 1 μM) for 10 min before treatment with the different peptides (1 μM) or apoA-I (10 μg/ml) purified from human plasma. 5 min after peptide treatment, endocytosis was initiated by 50 μg/mL of AlexaFluor568®-labelled HDL. The same experiment was performed with a […] excess of unlabelled HDL (2.5 mg/mL) to determine the nonspecific fluorescence signal. After 25 min at 37° C., cells were then washed in serum-free DMEM and extracellular membrane-bound HDL was disassociated by incubating cells at 4° C. in serum-free DMEM for 90 min. Following washes, cells were lysate in NaOH 0.1M SDS 1% during 2 h, lysates were transferred in a black 96-wells plate and fluorescence was recorded at 568 nm (Varioscan flash). Fluorescence for each condition was substrate with the value obtained in unlabelled HDL condition, and results were expressed as the fold change as compared with the basal condition (untreated cells).

The target of a further assay is T1, human F1Fo-ATPase (Homo sapiens, UniProt P06576).
T1 construct: Human F1Fo-ATPase was purified from HepG2 cells by immunocapture; endogenous in cells; host or cells: HepG2 cells; complex isolated by immunocapture with anti-ATP synthase antibody 12F4AD8AF8 (#ab109867, Abcam)
The assay is described as follows: F1-ATPase activity assay (NADH-coupled, purified enzyme). The format is biochemical. The settings on record: 1 μM. An excerpt:
The mature human IF1 protein (SEQ ID NO: 5) was chemically synthesized by GenScript (Piscataway, N.J., USA) at >80% purity. The peptides derived from the mature human IF1 sequence (IF1-1-60, IF1-10-56, IF1-10-47) were produced by BachemAG (Bubendorf, Switzerland) with >90% purity.
Human F1Fo-ATPase was purified from HepG2 cells by immunocapture using mouse monoclonal anti-ATP synthase antibody (12F4AD8AF8, #ab109867, Abcam) according to manufacturer's instructions.
Measurement of F1-ATPase activity was assayed as previously described. Briefly, 10 μg of F1Fo-ATPase was prepared into 50 μL of activity assay buffer (10 mM HEPES, 150 mM NaCl, 5 mM KCl, 5 mM MgCl2, 0.5 mM phosphoenolpyruvate, 250 μM NADH, 100 μM ATP, 20 U lactate dehydrogenase, 120 U pyruvate kinase). The mixture was incubated at 37° C. for 30 min. Then the F1-ATPase activity was measured in a 96-well microplate by adding 5 μL of the mixture (1 μg of F1Fo-ATPase per point) per well to 200 μL of activity assay buffer at 37° C., and by adding 5 μL of buffer with or without peptide (1 μM each). The reduction in the absorbance of NADH was measured at 340 nm for 5 min with a Varioskan™ Flash Multimode Reader (Thermo Fisher Scientific). A slope was calculated for each well and the results expressed as a percentage of the control slope.

A further assay concerns HUVEC cells. Description: Endothelial nitric oxide (NO) production, DAF-FM-DA probe. The settings on record: apoA-I; abolished by IF1. The format is cell-based, human. The method, then:
Nitric oxide (NO) was detected using a DAF-FM-DA probe (D2321, Sigma-Aldrich) which forms fluorescent benzotriazole when it reacts with NO. HUVEC cells (PromoCell #C-12203) were seeded in 96-well plates (10,000 cells per well) and cultured in endothelial cell basal medium 2 (PromoCell #C-22211) supplemented with GM2 supplement Mix (PromoCell #C-39211), until 80-90% confluence. The medium was then replaced with M-199 without serum for 4 h, and the cells were incubated for 45 min with DAF-FM-DA (5 μM) diluted in PBS. Cells were treated with increasing concentrations of the different peptides or apoA-I (10 μM) purified from human plasma or histamine (1 mM) as positive control. In another set of experiments, cells were incubated with inhibitors (IF1, 1 μM) for 10 min before treatment with peptides or apoA-I. The fluorescence was recorded for 30 min (λex=495 nm, λem=515 nm) with a Tecan Flash Multimode Reader (Thermo Fisher Scientific). Fluorescence for each condition was compared with the value obtained in untreated cells, and results were expressed as the fold change as compared with the basal condition (untreated cells).

Assay [1] deals with T2, ecto-F1-ATPase (HepG2 cells) (Homo sapiens, UniProt P06576).
T2 construct: host or cells: HepG2
Description: ecto-F1-ATPase activity: extracellular ADP content, luciferin-luciferase assay. Particulars: HepG2, 5 min, apoA-I 10 μg/mL; effect blunted by IF1. The format is cell-based. Here is the method: The human hepatocyte cell line HepG2 was obtained from the American Type Culture Collection (#HB-8065). HepG2 were cultured in Dulbecco's Modified Eagle's Medium (DMEM)—high glucose (D0822, Sigma-Aldrich) supplemented with 10% fetal bovine serum (10270098, Life technologies), 1% Penicillin-Streptomycin solution (P0781, Sigma-Aldrich). HepG2 cells were seeded on 24-well plates at 75,000 cells/well (Day 0). After 24 hours of growing, cells were serum starved for 24 h in order to synchronize cell cycles (Day 1) and then replaced additional 24 h in complete cell growth medium (Day 2). On day 3, cells were washed and equilibrated in fresh DMEM—high glucose without red phenol for 1 h (D1145, Sigma-Aldrich).
The cells were then treated 5 min with different concentration of peptide of formula (I) (0.1 to 5 μM), the peptide of formula (II) (1 μM), SCR (1 μM), SCR-K-16 (1 μM) or apoA-I (10 μg/mL) purified from human plasma.
Specific ecto-F1-ATPase activation was assessed in the presence of IF1 protein (1 μM), a natural inhibitor of F1-ATPase that interacts with the β-subunit to inhibit the ATP hydrolysis activity [5].
Supernatants were then collected and centrifuged (10,000 g, 5 min, 4° C.) and processed for ADP and ATP measurement. For ADP measurement, ADP was converted into ATP in 150 mM NaCl, 5 mM KCl, 2 mM MgCl2, pH 7.5 buffer containing 0.5 mM phosphoenolpyruvate (PEP) and pyruvate kinase (PK, 6 U per point for 15 min at 37° C.). For ATP measurement, 100 μl of sample was analyzed using the ATP bioluminescence assay kit CLS II (Roche Diagnostics). Samples were added to the ATP assay mixture and luminescence was measured in a microplate reader Infinite F500 (Tecan, Switzerland) for 1000 ms. The ATP standard curve was produced in the same medium as the samples and in the 10^−5 to 10^−10 M concentration range. The ADP concentration was then calculated as the ATP concentration following ADP conversion minus the basal ATP concentration. Data are expressed as nanomoles of ADP produced.

“CH3CO-[SEQ ID NO: 2]-K-[palmitoyl]-NH2 (Ac-GEAKSYAEKGEARGERGTKGEFRIFKREATD-{K(palmitoyl)-NH2}) [SCR-K-C16, palmitoylated scramble peptide, negative control, reference compound]”: the “effect on HDL endocytosis” value with HepG2 cells is given as “no effect”. Also, the “stimulation of F1-ATPase activity” value in the assay with human F1Fo-ATPase was “no effect”.

As to “CH3CO-[SEQ ID NO: 2]-NH2 (Ac-GEAKSYAEKGEARGERGTKGEFRIFKREATD-NH2) [SCR, reference compound]”, the “effect on HDL endocytosis” value with HepG2 cells is on record as “no effect”. Further, the “stimulation of F1-ATPase activity” value with human F1Fo-ATPase was “no effect”.

On to “apoA-I: Apolipoprotein A-I purified from human plasma, known F1-ATPase activator, positive control [reference compound]”, for which the “stimulation of HDL endocytosis compared to non-stimulated cells” value in the assay with HepG2 cells (apoA-I 10 μg/mL, abolished by IF1) is “about 45%”. For the same substance, the “NO production by endothelial cells” value in the assay on HUVEC cells is on record as “stimulated”. Besides, the “extracellular ADP concentration” value in assay [1] is “increased”.
